Experimental data from patent US20140135310A1, “SULPHONAMIDE DERIVATIVES OF ALICYCLIC AMINES FOR THE TREATMENT OF CENTRAL NERVOUS SYSTEM DISEASES” (Adamed Sp. z o.o., priority 2011, published 2014).

Legend:
[1] = molecular target: T1, 5-HT1A receptor (rat hippocampus) (Rattus norvegicus, UniProt P19327); test: Radioligand binding assay, serotoninergic 5-HT1A receptors; settings: binding assay result in %, Table 5a;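 note: test compound at 1 µM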
T1 construct: hippocampus; from tissue; host or cells: rat hippocampus
T1 sequence (P19327 1-422): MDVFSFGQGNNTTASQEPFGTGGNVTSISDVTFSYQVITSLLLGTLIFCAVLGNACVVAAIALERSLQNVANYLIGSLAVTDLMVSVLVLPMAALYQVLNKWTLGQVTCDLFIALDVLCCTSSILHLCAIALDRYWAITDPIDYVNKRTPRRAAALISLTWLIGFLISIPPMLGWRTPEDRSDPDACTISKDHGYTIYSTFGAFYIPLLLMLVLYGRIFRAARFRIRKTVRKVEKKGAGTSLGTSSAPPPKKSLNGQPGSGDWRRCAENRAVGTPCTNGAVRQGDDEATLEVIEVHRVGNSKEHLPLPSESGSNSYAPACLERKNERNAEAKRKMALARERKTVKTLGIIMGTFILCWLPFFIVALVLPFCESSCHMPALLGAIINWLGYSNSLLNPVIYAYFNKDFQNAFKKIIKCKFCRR

[2] = system: α1 adrenergic receptors (rat cerebral cortex); test: Radioligand binding assay, adrenergic α1 receptors; settings: test compound 1×10^−6 M
Summary of the method: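 Values derive from radioligand displacement, with non-specific binding defined by excess cold ligand and detection by scintillation. Hill-fit IC50s were converted to Ki via Cheng-Prusoff using Scatchard-derived Kd; percent inhibition of control specific binding also reported.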

5-HT6 receptor = molecular target: T2, 5-HT6 receptor (Homo sapiens, UniProt P50406); test: Radioligand binding assay, serotoninergic 5-HT6 receptors; settings: binding assay result in %, Table 5a;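 note: test compound at 1 µM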
T2 construct: purchased PerkinElmer
Summary of the method: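 Values are Ki from Cheng–Prusoff, taking IC50 from Hill nonlinear regression of competition curves and KD from a Scatchard plot. Specific binding was total minus binding with excess unlabelled ligand. Radioligand displacement was detected by scintillation counting, and data were also reported as percent of control specific binding.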

5-HT7 receptor = molecular target: T3, 5-HT7 receptor (Homo sapiens, UniProt P34969); test: Radioligand binding assay, serotoninergic 5-HT7 receptors; settings: binding assay result in %, Table 5a;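 note: test compound at 1 µM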
T3 construct: purchased PerkinElmer
Summary of the method: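 Ki values used the Cheng–Prusoff equation, with KD from Scatchard analysis, applied to IC50 from Hill fits of human 5-HT7 radioligand competition curves. Bound radioligand was counted by scintillation, and excess unlabelled ligand set the non-specific binding.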

[3] = molecular target: dopaminergic receptors D2 (Homo sapiens, UniProt P14416); test: Radioligand binding assay, dopaminergic D2 receptors; settings: binding assay, test compound 1×10^−6 M
Summary of the method: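 Values derive from competition curves: percent inhibition of control specific binding was fitted by Hill non-linear regression for IC50, and Ki calculated with Cheng–Prusoff from radioligand concentration and KD (Scatchard). Bound ligand was detected by scintillation counting.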

5-HT2A receptor = molecular target: T4, 5-HT2A receptor (Homo sapiens, UniProt P28223); test: Radioligand binding assay, serotoninergic 5-HT2A receptors; settings: binding assay result in %, Table 5a
T4 construct: purchased PerkinElmer
Summary of the method: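 Competition curves from scintillation-counted specific binding (total minus binding with excess unlabelled ligand) were Hill-fitted to give IC50, converted to Ki via Cheng-Prusoff using Scatchard-derived Kd.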

[4] = molecular target: dopaminergic receptors D3 (Homo sapiens, UniProt P35462); test: Radioligand binding assay, dopaminergic D3 receptors; settings: test compound 1×10^−6 M
Summary of the method: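 Scintillation read-out. Specific = total − nonspecific (excess cold ligand). Data as % of control specific binding / % inhibition; IC50 by Hill fit; Ki = IC50/(1+L/KD), KD from Scatchard plot.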

[5] = molecular target: T5, serotonin transporter (SERT) (Homo sapiens, UniProt P31645); test: Radioligand binding assay, serotonin transporter (SERT); settings: binding assay, test compound 1×10^−6 M
T5 construct: expressed in transfected cells; host or cells: CHO cells
Summary of the method: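 Values are derived from competition curves fitted by the Hill equation to give IC50, then converted to Ki by Cheng-Prusoff with radioligand Kd from Scatchard analysis. Specific binding equals total minus non-specific (excess cold ligand), counted by scintillation, and is also expressed as percent inhibition of control.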

dopaminergic receptors D3, sequence (P35462 whole entry): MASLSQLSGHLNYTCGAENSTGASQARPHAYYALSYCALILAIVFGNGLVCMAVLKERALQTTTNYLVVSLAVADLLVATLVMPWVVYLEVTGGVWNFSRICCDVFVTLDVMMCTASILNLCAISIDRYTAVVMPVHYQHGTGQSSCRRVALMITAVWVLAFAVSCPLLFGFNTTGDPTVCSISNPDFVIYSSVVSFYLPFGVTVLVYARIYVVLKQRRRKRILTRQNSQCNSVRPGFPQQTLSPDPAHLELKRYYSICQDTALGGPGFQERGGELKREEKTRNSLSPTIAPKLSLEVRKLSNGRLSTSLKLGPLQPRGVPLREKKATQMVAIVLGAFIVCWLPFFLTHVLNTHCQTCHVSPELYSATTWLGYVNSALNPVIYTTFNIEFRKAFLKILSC
T2 sequence (P50406 whole entry): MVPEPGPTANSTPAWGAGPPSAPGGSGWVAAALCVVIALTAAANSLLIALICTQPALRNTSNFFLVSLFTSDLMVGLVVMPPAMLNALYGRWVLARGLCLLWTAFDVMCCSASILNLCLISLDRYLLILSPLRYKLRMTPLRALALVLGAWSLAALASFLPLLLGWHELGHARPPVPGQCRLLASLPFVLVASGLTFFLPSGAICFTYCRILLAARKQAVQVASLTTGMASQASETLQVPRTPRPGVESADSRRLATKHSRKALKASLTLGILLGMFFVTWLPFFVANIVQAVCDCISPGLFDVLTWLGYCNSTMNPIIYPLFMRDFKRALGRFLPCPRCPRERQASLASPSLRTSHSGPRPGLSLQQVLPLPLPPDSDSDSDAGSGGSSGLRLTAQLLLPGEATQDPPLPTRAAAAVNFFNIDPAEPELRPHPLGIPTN
T3 sequence (P34969 whole entry): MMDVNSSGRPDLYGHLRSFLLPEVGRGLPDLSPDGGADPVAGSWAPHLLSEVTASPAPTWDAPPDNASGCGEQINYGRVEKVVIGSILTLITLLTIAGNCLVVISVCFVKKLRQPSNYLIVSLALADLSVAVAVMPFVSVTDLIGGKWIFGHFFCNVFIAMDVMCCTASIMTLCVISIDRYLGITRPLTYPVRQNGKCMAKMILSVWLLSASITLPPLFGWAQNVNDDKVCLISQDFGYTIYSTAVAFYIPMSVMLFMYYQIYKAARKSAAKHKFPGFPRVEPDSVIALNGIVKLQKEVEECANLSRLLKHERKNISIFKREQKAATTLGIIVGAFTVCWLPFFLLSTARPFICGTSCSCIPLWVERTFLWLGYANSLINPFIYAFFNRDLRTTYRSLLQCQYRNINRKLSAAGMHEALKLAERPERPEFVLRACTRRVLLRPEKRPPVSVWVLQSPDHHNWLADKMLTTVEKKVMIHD
T5 sequence (P31645 whole entry): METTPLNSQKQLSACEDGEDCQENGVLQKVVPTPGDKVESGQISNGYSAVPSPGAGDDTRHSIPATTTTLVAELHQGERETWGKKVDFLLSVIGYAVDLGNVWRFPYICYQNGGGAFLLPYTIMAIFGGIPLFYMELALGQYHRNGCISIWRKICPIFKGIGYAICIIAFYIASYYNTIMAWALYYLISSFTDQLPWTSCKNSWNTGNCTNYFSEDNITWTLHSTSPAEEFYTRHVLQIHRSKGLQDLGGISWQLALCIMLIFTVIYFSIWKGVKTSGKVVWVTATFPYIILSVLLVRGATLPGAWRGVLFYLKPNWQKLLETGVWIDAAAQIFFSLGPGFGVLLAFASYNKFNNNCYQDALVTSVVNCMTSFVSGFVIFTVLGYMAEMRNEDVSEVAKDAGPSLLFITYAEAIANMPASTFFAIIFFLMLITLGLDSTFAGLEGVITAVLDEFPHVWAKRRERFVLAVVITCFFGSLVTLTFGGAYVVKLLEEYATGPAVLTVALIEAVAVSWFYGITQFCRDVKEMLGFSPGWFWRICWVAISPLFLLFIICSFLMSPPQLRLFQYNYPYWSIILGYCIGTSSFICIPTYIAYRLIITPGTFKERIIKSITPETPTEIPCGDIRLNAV
dopaminergic receptors D2, sequence (P14416 whole entry): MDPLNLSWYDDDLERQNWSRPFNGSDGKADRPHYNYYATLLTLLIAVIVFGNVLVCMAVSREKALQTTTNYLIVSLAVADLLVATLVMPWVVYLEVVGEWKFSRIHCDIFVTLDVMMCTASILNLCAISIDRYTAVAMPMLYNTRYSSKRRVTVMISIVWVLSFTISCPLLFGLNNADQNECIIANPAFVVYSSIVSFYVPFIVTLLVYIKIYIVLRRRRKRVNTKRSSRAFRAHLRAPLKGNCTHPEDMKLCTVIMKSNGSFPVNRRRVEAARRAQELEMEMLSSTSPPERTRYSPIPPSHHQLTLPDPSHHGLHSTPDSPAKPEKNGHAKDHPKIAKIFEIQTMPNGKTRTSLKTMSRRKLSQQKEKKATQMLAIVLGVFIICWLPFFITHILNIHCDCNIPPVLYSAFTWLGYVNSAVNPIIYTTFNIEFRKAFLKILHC
T4 sequence (P28223 whole entry): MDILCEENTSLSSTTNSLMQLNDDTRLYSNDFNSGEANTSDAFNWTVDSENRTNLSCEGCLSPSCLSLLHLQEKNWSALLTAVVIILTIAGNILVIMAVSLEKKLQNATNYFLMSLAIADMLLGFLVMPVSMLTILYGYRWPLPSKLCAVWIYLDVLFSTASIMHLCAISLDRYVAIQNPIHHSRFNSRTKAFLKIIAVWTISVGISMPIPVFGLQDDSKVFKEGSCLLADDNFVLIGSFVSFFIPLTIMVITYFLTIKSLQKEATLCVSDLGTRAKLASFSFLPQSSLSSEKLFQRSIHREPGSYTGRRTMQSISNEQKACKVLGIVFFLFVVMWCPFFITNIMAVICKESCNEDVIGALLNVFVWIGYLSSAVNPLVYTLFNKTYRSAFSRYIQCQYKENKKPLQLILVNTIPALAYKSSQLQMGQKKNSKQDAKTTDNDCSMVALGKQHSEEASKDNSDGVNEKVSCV

Compound | inhibition at 1 µM [1] [%] | α1 [%] [2] [%] | inhibition at 1 µM (5-HT6 receptor) [%] | inhibition at 1 µM (5-HT7 receptor) [%] | inhibition at 1 µM [3] [%] | inhibition at 1 µM (5-HT2A receptor) [%] | inhibition at 1 µM [4] [%] | inhibition at 1 µM [5] [%] | 5-HT1A [%] [1] [%] | 5-HT6 [%] (5-HT6 receptor) | 5-HT7 [%] (5-HT7 receptor) | D2 [%] [3] [%] | 5-HT2A [%] (5-HT2A receptor) | D3 [%] [4] [%] | SERT [%] [5] [%]
O=S(=O)(NC1CCN(CCCc2noc3cc(F)ccc23)CC1)c1ccc(-c2ccccc2)cc1 [Compound 327, N-[1-[3-(6-Fluoro-1,2-benzoxazol-3-yl)propyl]-4-piperidyl]-4-phenylbenzenesulphonamide] | 20 | 81 | 68 | 86 | 79 | 94 | 56 | 33 |  |  |  |  |  |  | 
N-[1-[3-(6-Fluoro-1,2-benzoxazol-3-yl)propyl]pyrrolidin-3-yl]-1,3-benzothiazole-4-sulphonamide [Compound 31] |  | 100 |  |  |  |  |  |  | 58 | 76 | 89 | 87 | 84 | 27 | 36
N-[1-[3-(6-Fluoro-1,2-benzoxazol-3-yl)propyl]pyrrolidin-3-yl]benzene-sulphonamide [Compound 6] |  | 98 |  |  |  |  |  |  | 14 | 44 | 83 | 70 | 77 | 8 | 18
